Reference: ChEMBL document CHEMBL1139487, “Discovery of corticotropin releasing factor 2 receptor selective sauvagine analogues for treatment of skeletal muscle atrophy” (J Med Chem, 2005)
Square brackets hold non-standard residues; d marks the D form. Peptide text beside a SMILES is read from it. 1Nal = N[C@@H](Cc1cccc2ccccc12)C(=O)O; pGlu = O=C1CC[C@@H](C(=O)O)N1

Columns and labels:
[1] = target: T1, Corticotropin-releasing factor receptor 1 (Mus musculus) (UniProt P35347); assay: In vitro agonistic activity against mouse corticotropin releasing factor 1 receptor; type: functional
T1 sequence (whole entry): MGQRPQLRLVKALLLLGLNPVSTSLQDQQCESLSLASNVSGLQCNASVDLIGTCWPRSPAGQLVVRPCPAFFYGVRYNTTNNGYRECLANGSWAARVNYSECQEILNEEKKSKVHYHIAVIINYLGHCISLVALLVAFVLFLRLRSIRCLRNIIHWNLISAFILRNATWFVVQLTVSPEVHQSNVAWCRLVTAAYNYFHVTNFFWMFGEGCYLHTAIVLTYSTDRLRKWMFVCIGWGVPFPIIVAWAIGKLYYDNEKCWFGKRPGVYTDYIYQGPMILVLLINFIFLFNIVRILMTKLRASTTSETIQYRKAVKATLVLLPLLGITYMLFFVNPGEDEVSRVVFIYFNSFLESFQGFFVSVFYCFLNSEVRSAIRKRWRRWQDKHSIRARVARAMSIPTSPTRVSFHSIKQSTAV

[2] = target: Corticotropin-releasing factor receptor 2 (Mus musculus) (UniProt Q60748); assay: In vitro agonistic activity against mouse corticotropin releasing factor 2 receptor; type: functional
[3] = species on record: Mus musculus; assay: Selectivity ratio of EC50s for mouse corticotropin releasing factor receptors 1 and 2

Sequence of Corticotropin-releasing factor receptor 2 (Mus musculus) (Q60748 whole entry): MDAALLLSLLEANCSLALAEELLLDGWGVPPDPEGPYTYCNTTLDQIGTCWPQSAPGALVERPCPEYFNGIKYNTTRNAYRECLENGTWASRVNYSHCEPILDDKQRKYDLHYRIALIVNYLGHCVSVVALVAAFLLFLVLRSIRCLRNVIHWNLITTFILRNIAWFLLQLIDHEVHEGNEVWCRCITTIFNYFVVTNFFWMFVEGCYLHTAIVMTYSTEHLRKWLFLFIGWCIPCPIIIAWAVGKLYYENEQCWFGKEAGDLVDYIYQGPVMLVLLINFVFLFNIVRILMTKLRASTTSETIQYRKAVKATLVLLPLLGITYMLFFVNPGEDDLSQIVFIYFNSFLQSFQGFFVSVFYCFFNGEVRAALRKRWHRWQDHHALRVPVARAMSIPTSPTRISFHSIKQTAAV

Emax [1] [%]	Emax [2] [%]	Selectivity [3]	Structure (SMILES)
96	100	22	CC[C@H](C)[C@H](NC(=O)[C@@H](NC(=O)[C@H](CC(=O)O)NC(=O)[C@H](CC(C)C)NC(=O)[C@H](CC(C)C)NC(=O)[C@H](CC(C)C)NC(=O)[C@H](CCCN=C(N)N)NC(=O)[C@H](CC(N)=O)NC(=O)[C@H](CC(N)=O)NC(=O)[C@H](C)NC(=O)[C@H](C)NC(=O)[C@H](CCC(N)=O)NC(=O)[C@H](CCC(N)=O)NC(=O)[C@H](CCCCN)NC(=O)[C@H](CCC(=O)O)NC(=O)[C@H](CCCCN)NC(=O)[C@H](CCC(=O)O)NC(=O)[C@H](CCC(N)=O)NC(=O)[C@H](CCCCN)NC(=O)[C@H](CCC(=O)O)NC(=O)[C@@H](NC(=O)[C@H](CCC(=O)O)NC(=O)[C@@H](NC(=O)[C@H](CCSC)NC(=O)[C@H](CCCCN)NC(=O)[C@H](CCCN=C(N)N)NC(=O)[C@H](CC(C)C)NC(=O)[C@H](CC(C)C)NC(=O)[C@H](CC(C)C)NC(=O)[C@H](CC(C)C)NC(=O)[C@@H]1CCCN1C(=O)[C@H](CC(C)C)NC(=O)[C@H](CC(=O)O)NC(=O)[C@@H](NC(=O)[C@H](CO)NC(=O)[C@@H](NC(=O)[C@@H]1CCCN1C(=O)[C@@H]1CCCN1C(=O)CNC(=O)[C@@H]1CCC(=O)N1)[C@@H](C)CC)[C@@H](C)CC)[C@@H](C)CC)[C@@H](C)CC)[C@@H](C)O)C(=O)O
95	94	48	CC[C@H](C)[C@H](NC(=O)[C@@H](NC(=O)[C@H](CC(=O)O)NC(=O)[C@H](CC(C)C)NC(=O)[C@H](CC(C)C)NC(=O)[C@H](CC(C)C)NC(=O)[C@H](CCCN=C(N)N)NC(=O)[C@H](CC(N)=O)NC(=O)[C@H](CC(N)=O)NC(=O)[C@H](C)NC(=O)[C@H](C)NC(=O)[C@H](CCC(N)=O)NC(=O)[C@H](CCC(N)=O)NC(=O)[C@H](CCCCN)NC(=O)[C@H](CCC(=O)O)NC(=O)[C@H](CCCCN)NC(=O)[C@H](CCC(=O)O)NC(=O)[C@H](CCC(N)=O)NC(=O)[C@H](CCCCN)NC(=O)[C@H](CCC(=O)O)NC(=O)[C@@H](NC(=O)[C@H](CCC(=O)O)NC(=O)[C@@H](NC(=O)[C@H](CCSC)NC(=O)[C@H](CCCCN)NC(=O)[C@H](CCCN=C(N)N)NC(=O)[C@H](CC(C)C)NC(=O)[C@H](CC(C)C)NC(=O)[C@@H](NC(=O)[C@H](CC(C)C)NC(=O)[C@@H]1CCCN1C(=O)[C@H](CC(C)C)NC(=O)[C@H](CC(=O)O)NC(=O)[C@@H](NC(=O)[C@H](CO)NC(=O)[C@@H](NC(=O)[C@@H]1CCCN1C(=O)[C@@H]1CCCN1C(=O)CNC(=O)[C@@H]1CCC(=O)N1)[C@@H](C)CC)[C@@H](C)CC)C(C)C)[C@@H](C)CC)[C@@H](C)CC)[C@@H](C)O)C(=O)O
100	96	30	CC[C@H](C)[C@H](NC(=O)[C@@H](NC(=O)[C@H](CC(=O)O)NC(=O)[C@H](CC(C)C)NC(=O)[C@H](CC(C)C)NC(=O)[C@H](CC(C)C)NC(=O)[C@H](CCCN=C(N)N)NC(=O)[C@H](CC(N)=O)NC(=O)[C@H](CC(N)=O)NC(=O)[C@H](C)NC(=O)[C@H](C)NC(=O)[C@H](CCC(N)=O)NC(=O)[C@H](CCC(N)=O)NC(=O)[C@H](CCCCN)NC(=O)[C@H](CCC(=O)O)NC(=O)[C@H](CCCCN)NC(=O)[C@H](CCC(=O)O)NC(=O)[C@H](CCC(N)=O)NC(=O)[C@H](CCCCN)NC(=O)[C@H](CCC(=O)O)NC(=O)[C@@H](NC(=O)[C@H](CCC(=O)O)NC(=O)[C@@H](NC(=O)[C@H](CCSC)NC(=O)[C@H](CCCCN)NC(=O)[C@H](CCCN=C(N)N)NC(=O)[C@H](CC(C)C)NC(=O)[C@H](CC(C)C)NC(=O)[C@H](Cc1ccc(O)cc1)NC(=O)[C@H](CCC(N)=O)NC(=O)[C@@H]1CCCN1C(=O)[C@H](CC(C)C)NC(=O)[C@H](CC(=O)O)NC(=O)[C@@H](NC(=O)[C@H](CO)NC(=O)[C@@H](NC(=O)[C@@H]1CCCN1C(=O)[C@@H]1CCCN1C(=O)CNC(=O)[C@@H]1CCC(=O)N1)[C@@H](C)CC)[C@@H](C)CC)[C@@H](C)CC)[C@@H](C)CC)[C@@H](C)O)C(=O)O
79	73	16	CC[C@H](C)[C@H](NC(=O)[C@@H](NC(=O)[C@H](CC(=O)O)NC(=O)[C@H](CC(C)C)NC(=O)[C@H](CC(C)C)NC(=O)[C@H](CC(C)C)NC(=O)[C@H](CCCN=C(N)N)NC(=O)[C@H](CC(N)=O)NC(=O)[C@H](CC(N)=O)NC(=O)[C@H](C)NC(=O)[C@H](C)NC(=O)[C@H](CCC(N)=O)NC(=O)[C@H](CCC(N)=O)NC(=O)[C@H](CCCCN)NC(=O)[C@H](CCC(=O)O)NC(=O)[C@H](CCCCN)NC(=O)[C@H](CCC(=O)O)NC(=O)[C@H](CCC(N)=O)NC(=O)[C@H](CCCCN)NC(=O)[C@H](CCC(=O)O)NC(=O)[C@@H](NC(=O)[C@H](CCC(=O)O)NC(=O)[C@@H](NC(=O)[C@H](CCSC)NC(=O)[C@H](CCCCN)NC(=O)[C@H](CCCN=C(N)N)NC(=O)[C@H](CC(C)C)NC(=O)[C@H](CC(C)C)NC(=O)[C@H](Cc1ccc(O)cc1)NC(=O)[C@H](CC(C)C)NC(=O)[C@@H]1CCCN1C(=O)[C@H](CC(C)C)NC(=O)[C@H](CC(=O)O)NC(=O)[C@@H](NC(=O)[C@H](CO)NC(=O)[C@@H](NC(=O)[C@@H]1CCCN1C(=O)[C@@H]1CCCN1C(=O)CNC(=O)[C@@H]1CCC(=O)N1)[C@@H](C)CC)[C@@H](C)CC)[C@@H](C)CC)[C@@H](C)CC)[C@@H](C)O)C(=O)O ([pGlu]GPPISIDLPLYLLRKMIEIEKQEKEKQQAANNRLLLDTI-OH)
100	100	26	CC[C@H](C)[C@H](NC(=O)[C@@H](NC(=O)[C@H](CC(=O)O)NC(=O)[C@H](CC(C)C)NC(=O)[C@H](CC(C)C)NC(=O)[C@H](CC(C)C)NC(=O)[C@H](CCCN=C(N)N)NC(=O)[C@H](CC(N)=O)NC(=O)[C@H](CC(N)=O)NC(=O)[C@H](C)NC(=O)[C@H](C)NC(=O)[C@H](CCC(N)=O)NC(=O)[C@H](CCC(N)=O)NC(=O)[C@H](CCCCN)NC(=O)[C@H](CCC(=O)O)NC(=O)[C@H](CCCCN)NC(=O)[C@H](CCC(=O)O)NC(=O)[C@H](CCC(N)=O)NC(=O)[C@H](CCCCN)NC(=O)[C@H](CCC(=O)O)NC(=O)[C@@H](NC(=O)[C@H](CCC(=O)O)NC(=O)[C@@H](NC(=O)[C@H](CCSC)NC(=O)[C@H](CCCCN)NC(=O)[C@H](CCCN=C(N)N)NC(=O)[C@H](CC(C)C)NC(=O)[C@H](CC(C)C)NC(=O)[C@H](Cc1cccc2ccccc12)NC(=O)[C@H](CCC(N)=O)NC(=O)[C@@H]1CCCN1C(=O)[C@H](CC(C)C)NC(=O)[C@H](CC(=O)O)NC(=O)[C@@H](NC(=O)[C@H](CO)NC(=O)[C@@H](NC(=O)[C@@H]1CCCN1C(=O)[C@@H]1CCCN1C(=O)CNC(=O)[C@@H]1CCC(=O)N1)[C@@H](C)CC)[C@@H](C)CC)[C@@H](C)CC)[C@@H](C)CC)[C@@H](C)O)C(=O)O ([pGlu]GPPISIDLPQ[1Nal]LLRKMIEIEKQEKEKQQAANNRLLLDTI-OH)
86	94	15	CC[C@H](C)[C@H](NC(=O)[C@@H](NC(=O)[C@H](CC(=O)O)NC(=O)[C@H](CC(C)C)NC(=O)[C@H](CC(C)C)NC(=O)[C@H](CC(C)C)NC(=O)[C@H](CCCN=C(N)N)NC(=O)[C@H](CC(N)=O)NC(=O)[C@H](CC(N)=O)NC(=O)[C@H](C)NC(=O)[C@H](C)NC(=O)[C@H](CCC(N)=O)NC(=O)[C@H](CCC(N)=O)NC(=O)[C@H](CCCCN)NC(=O)[C@H](CCC(=O)O)NC(=O)[C@H](CCCCN)NC(=O)[C@H](CCC(=O)O)NC(=O)[C@H](CCC(N)=O)NC(=O)[C@H](CCCCN)NC(=O)[C@H](CCC(=O)O)NC(=O)[C@@H](NC(=O)[C@H](CCC(=O)O)NC(=O)[C@@H](NC(=O)[C@H](CCSC)NC(=O)[C@H](CCCCN)NC(=O)[C@H](CCCN=C(N)N)NC(=O)[C@H](CC(C)C)NC(=O)[C@H](CC(C)C)NC(=O)[C@H](CC(C)C)NC(=O)[C@H](Cc1ccc(O)cc1)NC(=O)[C@@H]1CCCN1C(=O)[C@H](CC(C)C)NC(=O)[C@H](CC(=O)O)NC(=O)[C@@H](NC(=O)[C@H](CO)NC(=O)[C@@H](NC(=O)[C@@H]1CCCN1C(=O)[C@@H]1CCCN1C(=O)CNC(=O)[C@@H]1CCC(=O)N1)[C@@H](C)CC)[C@@H](C)CC)[C@@H](C)CC)[C@@H](C)CC)[C@@H](C)O)C(=O)O
50	100	33	CC[C@H](C)[C@H](NC(=O)[C@@H](NC(=O)[C@H](CC(=O)O)NC(=O)[C@H](CC(C)C)NC(=O)[C@H](CC(C)C)NC(=O)[C@H](CC(C)C)NC(=O)[C@H](CCCN=C(N)N)NC(=O)[C@H](CC(N)=O)NC(=O)[C@H](CC(N)=O)NC(=O)[C@H](C)NC(=O)[C@H](C)NC(=O)[C@H](CCC(N)=O)NC(=O)[C@H](CCC(N)=O)NC(=O)[C@H](CCCCN)NC(=O)[C@H](CCC(=O)O)NC(=O)[C@H](CCCCN)NC(=O)[C@H](CCC(=O)O)NC(=O)[C@H](CCC(N)=O)NC(=O)[C@H](CCCCN)NC(=O)[C@H](CCC(=O)O)NC(=O)[C@@H](NC(=O)[C@H](CCC(=O)O)NC(=O)[C@@H](NC(=O)[C@H](CCSC)NC(=O)[C@H](CCCCN)NC(=O)[C@H](CCCN=C(N)N)NC(=O)[C@H](CC(C)C)NC(=O)[C@H](CC(C)C)NC(=O)[C@H](CCC(N)=O)NC(=O)[C@H](CCC(N)=O)NC(=O)[C@@H]1CCCN1C(=O)[C@H](CC(C)C)NC(=O)[C@H](CC(=O)O)NC(=O)[C@@H](NC(=O)[C@H](CO)NC(=O)[C@@H](NC(=O)[C@@H]1CCCN1C(=O)[C@@H]1CCCN1C(=O)CNC(=O)[C@@H]1CCC(=O)N1)[C@@H](C)CC)[C@@H](C)CC)[C@@H](C)CC)[C@@H](C)CC)[C@@H](C)O)C(=O)O
